Assay results published in patent US8541395B2 (priority 2009, dated 2013).

How the values were obtained:
HCN2 = molecular target: T1, HCN2 (Homo sapiens, UniProt Q9UL51); assay: Patch clamp assay, ion channel inhibition; details: read-out: Mean % inhibition (positive control)
T1 sequence (Q9UL51 1-889): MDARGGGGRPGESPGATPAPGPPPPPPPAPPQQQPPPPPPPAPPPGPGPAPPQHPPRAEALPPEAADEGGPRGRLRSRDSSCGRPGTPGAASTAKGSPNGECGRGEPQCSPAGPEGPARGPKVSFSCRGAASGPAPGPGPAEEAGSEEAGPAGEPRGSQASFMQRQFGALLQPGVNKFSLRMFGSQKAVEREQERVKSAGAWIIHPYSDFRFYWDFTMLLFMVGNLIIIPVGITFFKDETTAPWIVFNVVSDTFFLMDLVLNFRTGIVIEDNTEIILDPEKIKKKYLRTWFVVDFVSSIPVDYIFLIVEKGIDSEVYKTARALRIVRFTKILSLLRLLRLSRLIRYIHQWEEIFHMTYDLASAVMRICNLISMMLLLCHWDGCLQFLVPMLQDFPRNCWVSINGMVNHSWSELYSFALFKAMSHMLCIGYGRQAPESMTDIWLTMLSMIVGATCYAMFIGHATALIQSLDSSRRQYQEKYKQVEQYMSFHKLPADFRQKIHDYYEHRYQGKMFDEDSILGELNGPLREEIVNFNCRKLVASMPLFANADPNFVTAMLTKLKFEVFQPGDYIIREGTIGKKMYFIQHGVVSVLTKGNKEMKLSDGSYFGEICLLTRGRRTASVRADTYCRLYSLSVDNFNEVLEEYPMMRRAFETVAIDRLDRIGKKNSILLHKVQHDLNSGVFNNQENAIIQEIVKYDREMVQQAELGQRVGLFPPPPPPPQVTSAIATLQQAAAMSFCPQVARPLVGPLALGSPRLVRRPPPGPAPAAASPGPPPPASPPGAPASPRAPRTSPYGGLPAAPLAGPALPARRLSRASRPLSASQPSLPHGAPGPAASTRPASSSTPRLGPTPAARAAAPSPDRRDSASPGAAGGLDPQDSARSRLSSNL
Procedure: (§1) The studies were conducted according to the conventional procedures.
(§2) The exposure duration of each channel was 5 minutes. […] Any left current after exposure to this dose was digitally subtracted to eliminate the contribution of any endogenous current.

HCN4 = molecular target: T2, HCN4 (Homo sapiens, UniProt Q9Y3Q4); assay: Patch clamp assay, ion channel inhibition; details: read-out: Mean % inhibition (positive control)
T2 sequence (Q9Y3Q4 1-1203): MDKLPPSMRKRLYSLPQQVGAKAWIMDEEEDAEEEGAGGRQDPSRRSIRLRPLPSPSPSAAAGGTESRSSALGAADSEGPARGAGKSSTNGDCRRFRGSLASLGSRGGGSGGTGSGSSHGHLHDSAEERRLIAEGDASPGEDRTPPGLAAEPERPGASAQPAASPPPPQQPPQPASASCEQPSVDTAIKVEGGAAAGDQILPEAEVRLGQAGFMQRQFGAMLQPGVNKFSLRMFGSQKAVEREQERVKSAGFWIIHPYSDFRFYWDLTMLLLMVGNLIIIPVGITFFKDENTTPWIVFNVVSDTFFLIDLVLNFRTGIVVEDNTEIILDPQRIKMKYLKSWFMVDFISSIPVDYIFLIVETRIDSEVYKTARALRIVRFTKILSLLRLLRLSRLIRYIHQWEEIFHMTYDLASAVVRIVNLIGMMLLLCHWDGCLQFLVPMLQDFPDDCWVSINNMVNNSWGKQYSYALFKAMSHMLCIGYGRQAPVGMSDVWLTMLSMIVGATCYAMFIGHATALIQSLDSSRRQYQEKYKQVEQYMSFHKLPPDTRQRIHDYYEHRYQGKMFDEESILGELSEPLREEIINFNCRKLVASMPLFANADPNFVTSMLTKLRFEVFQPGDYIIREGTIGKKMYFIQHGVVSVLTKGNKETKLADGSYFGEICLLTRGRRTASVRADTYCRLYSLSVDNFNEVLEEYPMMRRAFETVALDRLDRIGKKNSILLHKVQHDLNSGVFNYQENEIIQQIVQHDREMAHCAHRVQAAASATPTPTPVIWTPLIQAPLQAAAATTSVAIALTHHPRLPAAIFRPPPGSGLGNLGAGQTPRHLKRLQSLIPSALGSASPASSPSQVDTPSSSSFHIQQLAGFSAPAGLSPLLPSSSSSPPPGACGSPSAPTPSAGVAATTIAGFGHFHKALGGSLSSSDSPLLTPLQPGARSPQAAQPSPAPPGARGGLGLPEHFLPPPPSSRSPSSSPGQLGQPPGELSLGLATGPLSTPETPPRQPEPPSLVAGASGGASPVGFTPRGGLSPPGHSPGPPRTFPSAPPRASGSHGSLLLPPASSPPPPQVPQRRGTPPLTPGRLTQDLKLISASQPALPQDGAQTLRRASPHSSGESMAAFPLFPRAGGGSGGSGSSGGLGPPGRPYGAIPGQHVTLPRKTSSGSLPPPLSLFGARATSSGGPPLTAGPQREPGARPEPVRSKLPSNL
Procedure: as §1, §2

SMILES: COc1ccc(CCN(C)CCCN2CCc3cc(OC)c(OC)cc3CC2=O)cc1OC [Zatebradine]
- inhibition at 100 µM (HCN2): 96.1%
- inhibition at 10 µM (HCN4): 88.3%
